Experimental data from US12534699B2, “Method for promoting growth of bacteria of genus Bifidobacterium” (KABUSHIKI KAISHA YAKULT HONSHA, priority 2019, dated 2026).

How the values were obtained:
Format in all cases: cell-based
[1] = test system: Bifidobacterium bifidum YIT 10347 (BF-1); test: Culture of BF-1 in skimmed milk culture medium with L-cystine or L-cysteine; settings: for viable cell count and acidity versus culture medium not containing L-cystine and L-cysteine: BF-1, simultaneous heating culture medium (skimmed milk or whey), 0.001 to 0.1% (w/v), FIGS. 5 and 6; for concentration at which the viable cell count was maximum: BF-1, skimmed milk simultaneous heating culture medium, 12 hours
Experimental: (§1) Bifidobacterium breve YIT 12272 (hereinafter, referred to as BbY), Bifidobacterium bifidum YIT 10347 (hereinafter, referred to as BF-1), Lactobacillus casei YIT 9029 (hereinafter, referred to as YIT 9029), and Lactobacillus acidophilus YIT 0198 (hereinafter, referred to as YIT 0198) were used.
A skimmed milk powder (ABC, manufactured by MEGMILK SNOW BRAND Co., Ltd.) was dissolved in RO water at 12% (w/v), the solution was dispensed in 10 mL aliquots in a rimmed medium-sized test tube while replacing the headspace with nitrogen gas and sealed with a butyl rubber stopper. Subsequently, the solution was sterilized by heat in an autoclave (SX-500, manufactured by Tomy Seiko Co., Ltd.) at 115° C. for 30 minutes to provide a skimmed milk culture medium (additive-free culture medium). In addition, a skimmed milk culture medium (simultaneous heating culture medium) was prepared in anaerobic conditions by adding an L-cystine (manufactured by Kyowa Hakko Bio Co., Ltd.) aqueous suspension or an L-cysteine hydrochloride (manufactured by Nichiri Kagaku Co., Ltd.) aqueous solution to a skimmed milk culture medium at a final concentration of 0.05 (w/v) % and performing heat sterilization after the addition of the suspension or the solution, and a skimmed milk culture medium (individual heating culture medium) was prepared in anaerobic conditions by adding the suspension or the solution to a skimmed milk culture medium at a final concentration of 0.05 (w/v) % after heat sterilization and immediately before inoculation. Here, the L-cystine aqueous suspension and the L-cysteine hydrochloride aqueous solution were prepared as a 5% (w/v) aqueous suspension and a 5% (w/v) aqueous solution, respectively, and were added to each culture medium at an amount of 1% (v/v). In order to unify the changes in the concentration and the changes in the redox potential of samples due to the addition of the solution, 1% (v/v) of sterilized water was added to the simultaneous heating culture medium immediately before inoculation, to the individual heating culture medium before heating, and to the additive-free culture medium before heating and immediately before inoculation, i.e., twice.
When bacteria were inoculated, inoculation was performed while replacing the headspace of the container with nitrogen gas, and the nitrogen gas was sealed with a butyl rubber stopper, followed by culture. The culture was performed in a thermostat water bath set to 37° C. for 12 hours.
The pH of a culture medium or a bacterial solution was measured using a desk-top pH meter (F52, manufactured by HORIBA, Ltd.).
The amount of a 0.1 N sodium hydroxide aqueous solution for 9.0 g of a bacterial solution required to reach a pH of 8.5 was defined as acidity. The measurement was performed using an automatic titrator (manufactured by HIRANUMA Co., Ltd.).
Regardless of the bacterial strain, a bacterial solution was appropriately diluted with a 0.85% (w/v) sodium chloride aqueous solution (physiological saline solution). The diluted bacterial solution was inoculated with a spiral plater EDDY JET (manufactured by IUL Instruments GmbH) on a plate culture medium of TOS propionate agar medium (manufactured by Yakult Pharmaceutical Industry Co., Ltd.) in the case of bacteria of the genus Bifidobacterium and a plate culture medium of BCP Added Plate Count medium (manufactured by EIKEN CHEMICAL CO., LTD.) in the case of bacteria of the genus Lactobacillus, followed by culture at 37° C. for 48 to 72 hours. The grown colonies were counted as the viable cell count. The bacteria of the genus Lactobacillus were cultured in aerobic conditions, and the bacteria of the genus Bifidobacterium were cultured in anaerobic conditions (Anaero Pack, manufactured by MITSUBISHI GAS CHEMICAL COMPANY, INC.). Colonies were counted using a colony counter ProtoCOL (manufactured by Synoptics Ltd.).
As in Example 1, each simultaneous heating culture medium of milk and L-cystine or L-cysteine was prepared. […]

[2] = test system: Lactobacillus casei YIT 9029; test: Culture of YIT 9029 in skimmed milk culture medium with L-cystine or L-cysteine; settings: YIT 9029, skimmed milk culture medium, 0.05 (w/v) %, 37° C., 12 hours, FIG. 1
Experimental: as §1
(§2) A skimmed milk powder (ABC, manufactured by MEGMILK SNOW BRAND Co., Ltd.) was dissolved in RO water at 12% (w/v), the solution was dispensed in 10 mL aliquots in a rimmed medium-sized test tube while replacing the headspace with nitrogen gas and sealed with a butyl rubber stopper. Subsequently, the solution was sterilized by heat in an autoclave (SX-500, manufactured by Tomy Seiko Co., Ltd.) at 115° C. for 30 minutes to provide a skimmed milk culture medium (additive-free culture medium). […]
(§3) The pH of a culture medium or a bacterial solution was measured using a desk-top pH meter (F52, manufactured by HORIBA, Ltd.). […]
(§4) Regardless of the bacterial strain, a bacterial solution was appropriately diluted with a 0.85% (w/v) sodium chloride aqueous solution (physiological saline solution). […] The grown colonies were counted as the viable cell count. […] Colonies were counted using a colony counter ProtoCOL (manufactured by Synoptics Ltd.).

[3] = test system: Lactobacillus acidophilus YIT 0198; test: Culture of YIT 0198 in skimmed milk culture medium with L-cystine or L-cysteine; settings: YIT 0198, skimmed milk culture medium, 0.05 (w/v) %, 37° C., 12 hours, FIG. 1
Experimental: as §1, §2, §3, §4

[4] = test system: Bifidobacterium bifidum YIT 10347 (BF-1); test: Culture of BF-1 in whey culture medium with L-cystine or L-cysteine; settings: BF-1, whey simultaneous heating culture medium, 12 hours
Experimental: A skimmed milk powder was dissolved in RO water at 12% (w/v), and the 12% (w/v) skimmed milk was adjusted to a pH of 4.6 with 5 N HCl, followed by centrifugation at 3,000×g for 5 minutes. Subsequently, the supernatant was adjusted to a pH of 6.5 with 5 N NaOH and was centrifuged at 10,000×g for 15 to 30 minutes. The supernatant was dispensed in 10 mL aliquots in a rimmed medium-sized test tube while replacing the headspace with nitrogen gas and sealed with a butyl rubber stopper. Subsequently, the supernatant was sterilized by heat in an autoclave at 115° C. for 30 minutes to provide a whey culture medium separated before heating. In addition, as in the skimmed milk culture medium, simultaneous heating culture medium was prepared in anaerobic conditions by adding L-cystine or L-cysteine before heating and then performing heat sterilization. The addition concentration of L-cystine or L-cysteine was adjusted to 0.001, 0.003, 0.005, 0.01, 0.03, 0.05, or 0.1% (w/v) as the final concentration.
Inoculation and culture were performed as in Example 1 except that only when BbY was cultured in the skimmed milk culture medium, the culture time was 9 hours.

[5] = BF-1, skimmed milk, 0.05 (w/v) %, cultured 12 hours

In the case of `Cl.N[C@@H](CS)C(=O)O` [L-cysteine, L-cysteine hydrochloride], the “viable cell count and acidity versus culture medium not containing L-cystine and L-cysteine” value [1] is reported as “increased”, the “concentration at which the viable cell count was maximum” value (“concentration” for short) [1] is reported as 0.05 % (w/v) and the “growth promotion by addition” value [2] is reported as “not observed”. For the same compound, the “growth promotion by addition” value [3] was “not observed” and the “concentration” value [4] was 0.03 % (w/v).
`N[C@@H](CSSC[C@H](N)C(=O)O)C(=O)O` [L-cystine] was tested, and the “viable cell count and acidity versus culture medium not containing L-cystine and L-cysteine” value [1] was “increased”, the “concentration” value [1] was 0.1 % (w/v) and the “acidity higher with simultaneous heating than individual heating” value [1, 5] was 1.3 times. For the same compound, the “viable cell count higher with simultaneous heating than individual heating” value [1, 5] was 4.5 times, the “growth promotion by addition” value [2] was “not observed” and the “growth promotion by addition” value [3] was “not observed”. For the same compound, the “concentration” value [4] was 0.03 % (w/v).
